Data published in patent publication US20230414723A1, “ENHANCED HYT-INDUCED PROTEIN DEGRADATION USING LIPID NANOPARTICLE DELIVERY” (Trustees of Tufts College, priority 2020, published 2023).

Tests used:
BRD4 = target: T1, BRD4 (Homo sapiens, UniProt O60885); assay: BRD4 degradation in HeLa cells by Western blot; type: cell-based
T1 construct: HeLa cells, which express BRD4 at high levels, were selected as a model cell line; host or cells: HeLa
Description: 80-O14B LNP was formulated by directly dissolving the lipidoid into 25 mM sodium acetate solution (pH=5.5). 80-O14B LNP was added into the solution with the final concentration of 5 μg/mL and the solution was incubated at room temperature for another 15 min before administration. Pre-fused ARV-825 or SARD279 were prepared through the similar route.
Generally, Western blots was carried out on the Invitrogen Novex SureLock Mini-Cell system. Supplies for the system were bought from Invitrogen (Carlsbad, CA, USA) […] sample was loaded onto 4-12% bis-tris protein gel and the gel was run with a stable voltage of 120 V for 80 min. Then the gel was cut according to the protein ladder and transferred to PVDF membrane with a stable current of 250 mA for 3 h. The membrane was blocked by 5% skimmed milk for 1 h at room temperature and then incubated with primary antibody overnight. After 3 cycles of washing by TBST (tris-buffered saline, 0.1% tween 20), the membrane was incubated with secondary antibody for another 1 h and then washed by TBST for 3 times. The final membrane was then imaged using enhanced chemiluminescence (ECL) substrate.
1×10^6 HeLa cells were cultured in 6 well plate for 24 h before administration. […] After 24 h incubation, the proteins were isolated from HeLa cells using the radio-immunoprecipitation assay (RIPA) lysis buffer and quantitated by bicinchoninic acid assay (BCA assay). Then the proteins were diluted to the sample concentration using NuPAGE LDS sample buffer (Invitrogen, Carlsbad, CA, USA) and denatured at 95° C. for 5 min. The study of targeted protein degradation by ARV-825 and SARD279 were carried out using similar protocols.

androgen receptor (AR) = target: T2, androgen receptor (AR) (Homo sapiens, UniProt P10275, T878A); assay: AR degradation in LNCaP cells by Western blot; type: cell-based; settings: 0.125 to 0.5 μM
T2 construct: The study of targeted protein degradation by ARV-825 and SARD279 were carried out using similar protocols; host or cells: LNCaP
T2 sequence (P10275 1-920 T878A): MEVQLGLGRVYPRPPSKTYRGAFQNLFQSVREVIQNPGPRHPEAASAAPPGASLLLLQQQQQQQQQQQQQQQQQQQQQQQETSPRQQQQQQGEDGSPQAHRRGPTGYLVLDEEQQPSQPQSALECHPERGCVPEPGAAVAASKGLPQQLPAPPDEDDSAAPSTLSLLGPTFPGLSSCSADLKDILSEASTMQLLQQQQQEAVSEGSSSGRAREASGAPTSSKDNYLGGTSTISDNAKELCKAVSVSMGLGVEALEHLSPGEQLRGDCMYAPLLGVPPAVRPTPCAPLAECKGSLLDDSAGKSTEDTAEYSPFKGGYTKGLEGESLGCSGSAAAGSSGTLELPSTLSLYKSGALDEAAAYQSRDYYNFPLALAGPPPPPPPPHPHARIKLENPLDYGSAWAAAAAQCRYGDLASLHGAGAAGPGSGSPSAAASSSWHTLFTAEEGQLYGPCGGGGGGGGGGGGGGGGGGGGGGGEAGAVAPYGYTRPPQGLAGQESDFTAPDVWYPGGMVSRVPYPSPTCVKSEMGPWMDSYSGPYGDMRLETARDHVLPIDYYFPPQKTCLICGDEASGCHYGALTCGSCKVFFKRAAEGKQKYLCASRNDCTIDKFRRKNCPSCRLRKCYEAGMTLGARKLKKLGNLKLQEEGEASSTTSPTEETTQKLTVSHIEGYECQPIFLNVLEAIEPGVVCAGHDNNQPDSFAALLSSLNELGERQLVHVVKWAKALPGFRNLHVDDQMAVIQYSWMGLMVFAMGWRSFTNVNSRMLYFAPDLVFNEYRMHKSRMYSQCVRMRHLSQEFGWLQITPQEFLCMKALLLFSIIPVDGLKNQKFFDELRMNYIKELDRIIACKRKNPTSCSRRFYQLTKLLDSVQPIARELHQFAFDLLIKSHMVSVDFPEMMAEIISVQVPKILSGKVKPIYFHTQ

SMILES	BRD4 levels remained (BRD4; 24 h, 25 and 50 nM)	BRD4 degradation, time-dependent (BRD4; after 8 h)	BRD4 degradation, time-dependent (BRD4; after 24 h)	BRD4 degradation, time-dependent (BRD4; first 6 h)	AR degradation (androgen receptor (AR))
Cc1ncsc1-c1ccc([C@H](C)NC(=O)[C@@H]2C[C@@H](O)CN2C(=O)[C@@H](NC(=O)COCCCOCCNC(=O)C[C@@H]2N=C(c3ccc(Cl)cc3)c3c(sc(C)c3C)-n3c(C)nnc32)C(C)(C)C)cc1 [ARV-771]	more than 80%	Small amounts of degradation	total degradation	no significant degradation	–
CC1(C)C(=O)N(c2ccc(C#N)c(C(F)(F)F)c2)C(=S)N1CCCC(=O)NCCOCCOC(=O)CC12CC3CC(CC(C3)C1)C2 [SARD279]	–	–	–	–	no AR degradation
